# Values quoted from earlier work, collected in paper PMC8330515 (Bioorganic & medicinal chemistry letters, 2020).
# Tested on: normal prostate epithelial cells
# Settings: read-out: 24 h IC50 in normal prostate epithelial cells
smiles,measurement,value
CCN(CC)C(=S)SCc1ccc(NC(=O)CC[C@H](N)C(=O)O)cc1 [GGTDTC],IC50,> 15 µM
